This passage reports Max % inhibition and IC50 results from patent US20230089867A1, “CYCLIC PENTAMER COMPOUNDS AS PROPROTEIN CONVERTASE SUBTILISIN/KEXIN TYPE 9 (PCSK9) INHIBITORS FOR THE TREATMENT OF METABOLIC DISORDER” (Novartis AG, priority 2018, published 2023).

The assay has as its target human PCSK9 (Homo sapiens, UniProt Q8NBP7). Put plainly: PCSK9 ligand binding TR-FRET assay (interference with binding of human PCSK9 to human LDLR). To be noted: for Max % inhibition: PCSK9 FRET assay, efficacy (Amax), 100% = 1 uM unlabeled human PCSK9, 0% = DMSO; for IC50: TR-FRET, human PCSK9 Alexa Fluor 647 / human LDLR extracellular domain-Europium Kryptate, read-out: PCSK9 FRET Assay IC50. A digest of the protocol:
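Threefold compound dilutions were pre-incubated 30 min with PCSK9, after which 4 nM Europium Kryptate-tagged human LDLR ectodomain was added for a further 2 h.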
For orientation: TR-FRET usually uses a lanthanide donor and a delayed reading to cut background.

Chain of human PCSK9 (Q8NBP7 153-692): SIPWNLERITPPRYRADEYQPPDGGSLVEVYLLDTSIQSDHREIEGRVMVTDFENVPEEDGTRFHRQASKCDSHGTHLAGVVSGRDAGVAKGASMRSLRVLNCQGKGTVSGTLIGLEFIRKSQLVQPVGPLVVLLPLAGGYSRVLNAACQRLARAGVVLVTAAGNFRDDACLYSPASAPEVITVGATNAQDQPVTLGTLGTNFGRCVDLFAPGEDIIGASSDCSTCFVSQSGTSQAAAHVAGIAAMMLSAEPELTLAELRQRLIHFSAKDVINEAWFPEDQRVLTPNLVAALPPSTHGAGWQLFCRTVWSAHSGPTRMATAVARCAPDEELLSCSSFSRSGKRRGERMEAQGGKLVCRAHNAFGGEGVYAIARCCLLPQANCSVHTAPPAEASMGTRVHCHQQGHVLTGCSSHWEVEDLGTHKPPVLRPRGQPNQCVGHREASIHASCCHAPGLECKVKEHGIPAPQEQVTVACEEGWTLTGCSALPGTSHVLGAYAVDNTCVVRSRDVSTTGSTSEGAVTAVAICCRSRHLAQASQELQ
Chain of human PCSK9 (Q8NBP7 31-152 partner limits assumed): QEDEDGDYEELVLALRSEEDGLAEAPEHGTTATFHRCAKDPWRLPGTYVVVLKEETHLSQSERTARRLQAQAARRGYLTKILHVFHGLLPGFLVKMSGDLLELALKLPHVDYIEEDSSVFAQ

A word on the IC50: it is the midpoint of a concentration-inhibition curve. Turning to `COC[C@@H]1NC(=O)[C@H](C)N(Cc2ccc(Cl)cc2Oc2ccc(-c3cnc4n3CCN(C(=O)C(C)C)C4)cc2)C(=O)C[C@@H](Cc2ccccc2)C(=O)N(C)[C@@H](C)CNC(=O)C[C@H](Cc2ccc(Cl)cc2)N(C)C1=O` [Compound 132, (2S,5S,8S,13S,16R)-16-benzyl-1-(4-chloro-2-(4-(7-isobutyryl-5,6,7,8-tetrahydroimidazo[1,2-a]pyrazin-3-yl)phenoxy)benzyl)-8-(4-chlorobenzyl)-5-(methoxymethyl)-2,7,13,14-tetramethyl-1,4,7,11,14-pentaazacyclooctadecane-3,6,10,15,18-pentaone], the Max % inhibition stood at 71.97% and the IC50 came out at 7.3 nM.

Consider `COC[C@@H]1NC(=O)[C@H](C)N(Cc2ccc(Cl)cc2Oc2ccc(-c3cnc4n3CCN(C(=O)C3CCOC3)C4)cc2)C(=O)C[C@@H](Cc2ccccc2)C(=O)N(C)[C@@H](C)CNC(=O)C[C@H](Cc2ccc(Cl)cc2)N(C)C1=O` (stereo partly drawn) [Compound 133, (2S,5S,8S,13S,16R)-16-benzyl-1-(4-chloro-2-(4-(7-(tetrahydrofuran-3-carbonyl)-5,6,7,8-tetrahydroimidazo[1,2-a]pyrazin-3-yl)phenoxy)benzyl)-8-(4-chlorobenzyl)-5-(methoxymethyl)-2,7,13,14-tetramethyl-1,4,7,11,14-pentaazacyclooctadecane-3,6,10,15,18-pentaone], for which the Max % inhibition was 93.15% and the IC50 is 5.8 nM.

For `COC[C@@H]1NC(=O)[C@H](C)N(Cc2ccc(Cl)cc2Oc2ccc(-n3nnc(CN(C)C)c3C)cc2)C(=O)C[C@@H](Cc2ccccc2)C(=O)N(C)[C@@H](C)CNC(=O)C[C@H](Cc2ccc(Cl)cc2)N(C)C1=O.O=CO` [Compound 134, (2S,5S,8S,13S,16R)-16-benzyl-1-(4-chloro-2-(4-(4-((dimethylamino)methyl)-5-methyl-1H-1,2,3-triazol-1-yl)phenoxy)benzyl)-8-(4-chlorobenzyl)-5-(methoxymethyl)-2,7,13,14-tetramethyl-1,4,7,11,14-pentaazacyclooctadecane-3,6,10,15,18-pentaone formate], the Max % inhibition came to 98.77% and the IC50 was 39.5 nM.

Regarding `COC[C@@H]1NC(=O)[C@H](C)N(Cc2ccc(Cl)cc2Oc2ccc(-c3cncc(C4CN(C)CCN4C)c3)cc2)C(=O)C[C@@H](Cc2ccccc2)C(=O)N(C)[C@@H](C)CNC(=O)C[C@H](Cc2ccc(Cl)cc2)N(C)C1=O` (stereo partly drawn) [Compound 135, (2S,5S,8S,13S,16R)-16-benzyl-1-(4-chloro-2-(4-(5-(1,4-dimethylpiperazin-2-yl)pyridin-3-yl)phenoxy)benzyl)-8-(4-chlorobenzyl)-5-(methoxymethyl)-2,7,13,14-tetramethyl-1,4,7,11,14-pentaazacyclooctadecane-3,6,10,15,18-pentaone], the Max % inhibition worked out at 58.33% and the IC50 was 9.4 nM.

Regarding `COC[C@@H]1NC(=O)[C@H](C)N(Cc2ccc(Cl)cc2Oc2ccc(-c3cncc(C4=CCNCC4)c3)cc2)C(=O)C[C@@H](Cc2ccccc2)C(=O)N(C)[C@@H](C)CNC(=O)C[C@H](Cc2ccc(Cl)cc2)N(C)C1=O` [Compound 136, (2S,5S,8S,13S,16R)-16-benzyl-1-(4-chloro-2-(4-(1′,2′,3′,6′-tetrahydro-[3,4′-bipyridin]-5-yl)phenoxy)benzyl)-8-(4-chlorobenzyl)-5-(methoxymethyl)-2,7,13,14-tetramethyl-1,4,7,11,14-pentaazacyclooctadecane-3,6,10,15,18-pentaone], the Max % inhibition was 96.16% and the IC50 is 5 nM.

Take `COC[C@@H]1NC(=O)[C@H](C)N(Cc2ccc(Cl)cc2Oc2ccc(-c3cncc(C4CCNCC4)c3)cc2)C(=O)C[C@@H](Cc2ccccc2)C(=O)N(C)[C@@H](C)CNC(=O)C[C@H](Cc2ccc(Cl)cc2)N(C)C1=O` [Compound 137, (2S,5S,8S,13S,16R)-16-benzyl-1-(4-chloro-2-(4-(5-(piperidin-4-yl)pyridin-3-yl)phenoxy)benzyl)-8-(4-chlorobenzyl)-5-(methoxymethyl)-2,7,13,14-tetramethyl-1,4,7,11,14-pentaazacyclooctadecane-3,6,10,15,18-pentaone]: the Max % inhibition was determined as 90.76% and the IC50 came out at 8.4 nM.

As for `COC[C@@H]1NC(=O)[C@H](C)N(Cc2ccc(Cl)cc2Oc2ccc(-c3cnc(CN4CCCC4)n3C)cc2)C(=O)C[C@@H](Cc2ccccc2)C(=O)N(C)[C@@H](C)CNC(=O)C[C@H](Cc2ccc(Cl)cc2)N(C)C1=O` [Compound 138, (2S,5S,8S,13S,16R)-16-benzyl-1-(4-chloro-2-(4-(1-methyl-2-(pyrrolidin-1-ylmethyl)-1H-imidazol-5-yl)phenoxy)benzyl)-8-(4-chlorobenzyl)-5-(methoxymethyl)-2,7,13,14-tetramethyl-1,4,7,11,14-pentaazacyclooctadecane-3,6,10,15,18-pentaone], the Max % inhibition was determined as 98.02% and the IC50 was found to be 1.5 nM.

Take `C[C@H]1CNC(=O)C[C@H](Cc2ccc(Cl)cc2)N(C)C(=O)[C@H](CO)NC(=O)[C@H](C)N(Cc2ccc(Cl)cc2Oc2ccc3c(c2)C(=O)N(C2CCN(CC4CC4)CC2)C3)C(=O)C[C@@H](Cc2ccccc2)C(=O)N1C` [Compound 139, (2S,5S,8S,13S,16R)-16-benzyl-1-(4-chloro-2-((2-(1-(cyclopropylmethyl)piperidin-4-yl)-3-oxoisoindolin-5-yl)oxy)benzyl)-8-(4-chlorobenzyl)-5-(hydroxymethyl)-2,7,13,14-tetramethyl-1,4,7,11,14-pentaazacyclooctadecane-3,6,10,15,18-pentaone]: the Max % inhibition is given as 65.69% and the IC50 was found to be 5.7 nM.

`COC[C@@H]1NC(=O)[C@H](C)N(Cc2ccc(Cl)cc2Oc2ccc(-c3cnc(CN(C)C)n3C)cc2)C(=O)CCC(=O)N(C)CCNC(=O)C[C@H](Cc2ccc(Cl)cc2)N(C)C1=O` [Compound 141, (2S,5S,8S)-1-(4-chloro-2-(4-(2-((dimethylamino)methyl)-1-methyl-1H-imidazol-5-yl)phenoxy)benzyl)-8-(4-chlorobenzyl)-5-(methoxymethyl)-2,7,14-trimethyl-1,4,7,11,14-pentaazacyclooctadecane-3,6,10,15,18-pentaone]: the Max % inhibition is on record as 102.37% and the IC50 is 882 nM.

With `C[C@H]1CNC(=O)C[C@H](Cc2ccc(Cl)cc2)N(C)C(=O)[C@H](CO)NC(=O)[C@H](C)N(Cc2ccc(Cl)cc2Oc2ccc(-c3cnc(CN(C)C)n3C)cc2)C(=O)C[C@@H](Cc2ccccc2)C(=O)N1C` [Compound 142, (2S,5S,8S,13S,16R)-16-benzyl-1-(4-chloro-2-(4-(2-((dimethylamino)methyl)-1-methyl-1H-imidazol-5-yl)phenoxy)benzyl)-8-(4-chlorobenzyl)-5-(hydroxymethyl)-2,7,13,14-tetramethyl-1,4,7,11,14-pentaazacyclooctadecane-3,6,10,15,18-pentaone], the Max % inhibition is 100.91% and the IC50 amounted to 1.2 nM.

Take `COC[C@@H]1NC(=O)[C@H](C)N(Cc2ccc(Cl)cc2Oc2ccc(-c3cnc(CN(C)C)n3C)cc2)C(=O)C[C@@H](Cc2ccccc2)C(=O)N(C)C2(CC2)CNC(=O)C[C@H](Cc2ccc(Cl)cc2)N(C)C1=O` [Compound 144, (6R,10S,13S,16S)-6-benzyl-9-(4-chloro-2-(4-(2-((dimethylamino)methyl)-1-methyl-1H-imidazol-5-yl)phenoxy)benzyl)-16-(4-chlorobenzyl)-13-(methoxymethyl)-4,10,15-trimethyl-4,9,12,15,19-pentaazaspiro[2.17]icosane-5,8,11,14,18-pentaone]: the Max % inhibition came out at 100.34% and the IC50 came out at 7 nM.

Turning to `COC[C@@H]1NC(=O)[C@H](C)N(Cc2ccc(Cl)cc2Oc2ccc(-c3cnc(CN(C)C)n3C)cc2)C(=O)C[C@@H](Cc2ccccc2)C(=O)N(C)[C@H]2CCCC[C@@H]2NC(=O)C[C@H](Cc2ccc(Cl)cc2)N(C)C1=O` [Compound 145, (4S,7S,10S,14R,16aS,20aS)-14-benzyl-11-(4-chloro-2-(4-(2-((dimethylamino)methyl)-1-methyl-1H-imidazol-5-yl)phenoxy)benzyl)-4-(4-chlorobenzyl)-7-(methoxymethyl)-5,10,16-trimethylhexadecahydrobenzo[l][1,4,7,11,14]pentaazacyclooctadecine-2,6,9,12,15(3H)-pentaone], the Max % inhibition was 102.40% and the IC50 is 1.1 nM.

As to `Cc1c(CN2CCCC2)cncc1-c1ccc(Oc2cc(Cl)ccc2CN2C(=O)C[C@@H](Cc3ccccc3)C(=O)N(C)[C@@H](C)CNC(=O)C[C@H](Cc3ccc(Cl)cc3)N(C)C(=O)[C@H](CO)NC(=O)[C@@H]2C)cc1` [Compound 146, (2S,5S,8S,13S,16R)-16-benzyl-1-(4-chloro-2-(4-(4-methyl-5-(pyrrolidin-1-ylmethyl)pyridin-3-yl)phenoxy)benzyl)-8-(4-chlorobenzyl)-5-(hydroxymethyl)-2,7,13,14-tetramethyl-1,4,7,11,14-pentaazacyclooctadecane-3,6,10,15,18-pentaone], the Max % inhibition came out at 51.67% and the IC50 is 3.1 nM.

With `C[C@H]1CNC(=O)C[C@H](Cc2ccc(Cl)cc2)N(C)C(=O)[C@H](Cc2nnn[nH]2)NC(=O)[C@H](C)N(Cc2ccc(Cl)cc2Oc2ccc(-c3cnc(CN(C)C)n3C)cc2)C(=O)C[C@@H](Cc2ccccc2)C(=O)N1C` [Compound 148, (2S,5S,8S,13S,16R)-5-((1H-tetrazol-5-yl)methyl)-16-benzyl-1-(4-chloro-2-(4-(2-((dimethylamino)methyl)-1-methyl-1H-imidazol-5-yl)phenoxy)benzyl)-8-(4-chlorobenzyl)-2,7,13,14-tetramethyl-1,4,7,11,14-pentaazacyclooctadecane-3,6,10,15,18-pentaone], the Max % inhibition came out at 94.67% and the IC50 is 29.2 nM.
